Experimental data published in ChEMBL document CHEMBL5104161, “Novel analgesic/anti-inflammatory agents: 1,5-Diarylpyrrole nitrooxyethyl sulfides and related compounds as Cyclooxygenase-2 inhibitors containing a nitric oxide donor moiety endowed with vasorelaxant properties” (Eur J Med Chem, 2022).

Tests used:
[1] = Half-life in human liver microsomes at 1 uM preincubated for 10 mins and measured up to 60 mins by LC-MS/MS analysis; type: ADME, Microsome
Mus musculus [2] = assay: Analgesic activity against acetic acid-induced male CD1 albino mouse model assessed as number of writhes at 30 mg/kg, po measured after 30 mins by abdominal constriction test; type: functional; settings: 0.5 h
J774 = assay: Ratio IC50 for inhibition of COX1 in mouse J774 cells over inhibition of COX2 in mouse J774 cells; type: cell-based
Rattus norvegicus [3] = assay: Anti-hyperalgesic activity in carrageenan-induced hyperalgesia male Sprague-Dawley rat model assessed as paw withdrawal threshold at 20 mg/kg, po measured 15 mins after compound administration by paw pressure test; type: functional; settings: 0.25 h
Aorta = assay: Vasorelaxant activity in Sprague-Dawley rat aortic rings assessed as reduction in L-phenylephrine-induced contractions at 0.01 to 100 uM relative to control; type: functional; settings: dose 0.01-100 µM
Rattus norvegicus [4] = assay: Anti-hyperalgesic activity in carrageenan-induced hyperalgesia male Sprague-Dawley rat model assessed as paw withdrawal threshold at 20 mg/kg, po measured 30 mins after compound administration by paw pressure test; type: functional; settings: 0.5 h
Rattus norvegicus [5] = assay: Anti-hyperalgesic activity in carrageenan-induced hyperalgesia male Sprague-Dawley rat model assessed as paw edema volume at 20 mg/kg, po measured 30 mins after compound administration by plethysmometer analysis; type: functional; settings: 0.5 h
Rattus norvegicus [6] = assay: Anti-hyperalgesic activity in carrageenan-induced hyperalgesia male Sprague-Dawley rat model assessed as paw withdrawal threshold at 20 mg/kg, po measured 45 mins after compound administration by paw pressure test; type: functional; settings: 0.75 h
[7] = Half-life in mouse liver microsomes at 1 uM preincubated for 10 mins and measured up to 60 mins by LC-MS/MS analysis; type: ADME, Microsome
[8] = Intrinsic clearance in human liver microsomes at 1 uM preincubated for 10 mins and measured up to 60 mins by LC-MS/MS analysis; type: ADME, Microsome; settings: read-out: CLH
[9] = molecular target: T1, Prostaglandin G/H synthase 2 (Mus musculus, UniProt Q05769); assay: Inhibition of COX2 in LPS-stimulated mouse J774 cells assessed as inhibition of PGE2 production and measured after 24 hrs by enzyme immuno-assay (EIA); type: cell-based
T1 sequence (Q05769 whole entry): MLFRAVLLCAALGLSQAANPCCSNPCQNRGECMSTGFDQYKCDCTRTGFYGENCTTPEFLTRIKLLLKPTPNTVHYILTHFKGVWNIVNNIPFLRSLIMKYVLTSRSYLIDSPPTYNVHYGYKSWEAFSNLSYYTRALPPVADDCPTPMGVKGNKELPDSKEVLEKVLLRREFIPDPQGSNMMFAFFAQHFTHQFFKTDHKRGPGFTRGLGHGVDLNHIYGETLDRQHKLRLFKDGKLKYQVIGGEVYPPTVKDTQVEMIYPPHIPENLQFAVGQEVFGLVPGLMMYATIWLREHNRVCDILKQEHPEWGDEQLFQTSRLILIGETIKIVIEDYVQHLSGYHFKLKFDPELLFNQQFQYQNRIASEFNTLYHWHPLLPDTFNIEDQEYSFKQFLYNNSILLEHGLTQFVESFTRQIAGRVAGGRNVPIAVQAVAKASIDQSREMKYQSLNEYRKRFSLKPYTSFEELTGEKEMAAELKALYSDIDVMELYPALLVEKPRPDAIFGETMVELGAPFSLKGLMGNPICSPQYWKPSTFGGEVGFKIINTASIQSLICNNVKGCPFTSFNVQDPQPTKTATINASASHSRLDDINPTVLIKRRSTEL

[10] = Intrinsic clearance in mouse liver microsomes at 1 uM preincubated for 10 mins and measured up to 60 mins by LC-MS/MS analysis; type: ADME, Microsome; settings: read-out: CLH
Rattus norvegicus [11] = assay: Anti-hyperalgesic activity in carrageenan-induced hyperalgesia male Sprague-Dawley rat model assessed as paw withdrawal threshold at 20 mg/kg, po measured 60 mins after compound administration by paw pressure test; type: functional; settings: 1 h
Mus musculus [12] = assay: Analgesic activity against acetic acid-induced male CD1 albino mouse model assessed as number of writhes at 20 mg/kg, po measured after 30 mins by abdominal constriction test; type: functional; settings: 0.5 h
[13] = molecular target: T2, Prostaglandin G/H synthase 1 (Mus musculus, UniProt P22437); assay: Inhibition of COX1 in mouse J774 cells using arachidonic acid as substrate preincubated for 15 mins followed substrate addition and assessed as inhibition of PGE2 production after 30 mins by enzyme immuno-assay (EIA); type: cell-based
T2 sequence (P22437 whole entry): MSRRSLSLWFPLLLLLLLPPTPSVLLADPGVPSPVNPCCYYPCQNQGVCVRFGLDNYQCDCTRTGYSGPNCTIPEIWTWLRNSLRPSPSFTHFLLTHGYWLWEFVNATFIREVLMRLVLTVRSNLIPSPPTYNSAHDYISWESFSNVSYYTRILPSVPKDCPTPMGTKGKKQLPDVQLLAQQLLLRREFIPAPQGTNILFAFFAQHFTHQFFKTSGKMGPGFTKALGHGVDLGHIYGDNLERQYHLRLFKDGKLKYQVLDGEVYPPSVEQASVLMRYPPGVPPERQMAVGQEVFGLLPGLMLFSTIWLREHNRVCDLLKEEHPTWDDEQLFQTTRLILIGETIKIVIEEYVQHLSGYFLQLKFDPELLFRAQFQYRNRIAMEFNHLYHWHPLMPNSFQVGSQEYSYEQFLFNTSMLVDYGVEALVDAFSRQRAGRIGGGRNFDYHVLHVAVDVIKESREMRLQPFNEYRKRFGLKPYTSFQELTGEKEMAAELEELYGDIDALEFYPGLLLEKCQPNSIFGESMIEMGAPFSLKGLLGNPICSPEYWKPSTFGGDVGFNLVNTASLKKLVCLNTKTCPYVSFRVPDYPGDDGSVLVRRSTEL

Mus musculus [14] = assay: Analgesic activity against acetic acid-induced male CD1 albino mouse model assessed as number of writhes at 10 mg/kg, po measured after 30 mins by abdominal constriction test; type: functional; settings: 0.5 h
Rattus norvegicus [15] = assay: Anti-hyperalgesic activity in carrageenan-induced hyperalgesia male Sprague-Dawley rat model assessed as paw withdrawal threshold at 10 mg/kg, po measured 60 mins after compound administration by paw pressure test; type: functional; settings: 1 h
Rattus norvegicus [16] = assay: Anti-hyperalgesic activity in carrageenan-induced hyperalgesia male Sprague-Dawley rat model assessed as paw withdrawal threshold at 10 mg/kg, po measured 15 mins after compound administration by paw pressure test; type: functional; settings: 0.25 h
Rattus norvegicus [17] = assay: Anti-hyperalgesic activity in carrageenan-induced hyperalgesia male Sprague-Dawley rat model assessed as paw withdrawal threshold at 10 mg/kg, po measured 45 mins after compound administration by paw pressure test; type: functional; settings: 0.75 h
Rattus norvegicus [18] = assay: Anti-hyperalgesic activity in carrageenan-induced hyperalgesia male Sprague-Dawley rat model assessed as paw edema volume at 10 mg/kg, po measured 30 mins after compound administration by plethysmometer analysis; type: functional; settings: 0.5 h
Rattus norvegicus [19] = assay: Anti-hyperalgesic activity in carrageenan-induced hyperalgesia male Sprague-Dawley rat model assessed as paw withdrawal threshold at 10 mg/kg, po measured 30 mins after compound administration by paw pressure test; type: functional; settings: 0.5 h

SMILES | Activity (Mus musculus [2]) | Ratio IC50 (J774) | Activity (Rattus norvegicus [3]) [g] | Efficacy (Aorta) [%] | Activity (Rattus norvegicus [4]) [g] | Activity (Rattus norvegicus [5]) [mL] | Activity (Rattus norvegicus [6]) [g] | IC50 [9] [µM] | Activity (Rattus norvegicus [11]) [g] | Activity (Mus musculus [12]) | IC50 [13] [µM] | Activity (Mus musculus [14]) | also measured
Cc1c(CCSCCO[N+](=O)[O-])cc(-c2ccc(S(C)(=O)=O)cc2)n1-c1ccc(F)cc1 | 20.6 | > 1110 | 39.9 | 59 | 45.9 | 2.18 | 44.7 | 0.009 | 37.5 | 20.5 | > 10 | 24.2 | half-life at 1 µM [1]: 10.5 min; half-life at 1 µM [7]: 22.8 min; microsomal CLint at 1 µM [8]: 132 µL/min/mg; microsomal CLint at 1 µM [10]: 61.2 µL/min/mg
Cc1c(CC[S+]([O-])CCO)cc(-c2ccc(S(C)(=O)=O)cc2)n1-c1ccc(F)cc1 (centres undefined) | – | > 11 | – | – | – | – | – | 0.916 | – | – | > 10 | – | half-life at 1 µM [1]: 470 min; half-life at 1 µM [7]: 142 min; microsomal CLint at 1 µM [8]: 3.2 µL/min/mg; microsomal CLint at 1 µM [10]: 9.7 µL/min/mg
Cc1c(CC[S+]([O-])CCO[N+](=O)[O-])cc(-c2ccc(S(C)(=O)=O)cc2)n1-c1ccc(F)c(F)c1 (centres undefined) | 21.3 | > 3330 | 39.8 | 59 | 48.2 | 2.2 | 44.2 | 0.003 | 38.3 | 20.1 | > 10 | 25.9 | –
Cc1c(CC[S+]([O-])CCO[N+](=O)[O-])cc(-c2ccc(S(C)(=O)=O)cc2)n1-c1ccccc1 (centres undefined) | – | > 135 | – | 59 | – | – | – | 0.074 | – | – | > 10 | – | –
Cc1c(CCOCCO[N+](=O)[O-])cc(-c2ccc(S(C)(=O)=O)cc2)n1-c1ccccc1 | – | > 588 | – | – | – | – | – | – | – | – | – | – | –
Cc1c(CCSCCO)cc(-c2ccc(S(C)(=O)=O)cc2)n1-c1ccc(F)c(F)c1 | 17.4 | > 588 | 37.8 | – | 46.6 | 2.09 | 45.3 | 0.017 | 39.6 | 19.6 | > 10 | 23.8 | –
Cc1c(CCSCCO)cc(-c2ccc(S(C)(=O)=O)cc2)n1-c1ccccc1 | – | > 400 | – | – | – | – | – | 0.025 | – | – | > 10 | – | –
CCOc1ccc2ccc(=O)oc2c1 | – | – | – | – | – | – | – | – | – | – | – | – | half-life at 1 µM [1]: 12.6 min; half-life at 1 µM [7]: 4.7 min; microsomal CLint at 1 µM [8]: 113 µL/min/mg; microsomal CLint at 1 µM [10]: 297 µL/min/mg
Cc1c(CCOCCO[N+](=O)[O-])cc(-c2ccc(S(C)(=O)=O)cc2)n1-c1ccc(F)cc1 | – | > 714 | – | 59 | – | – | – | – | – | – | – | – | –
Cc1c(CCSCCO[N+](=O)[O-])cc(-c2ccc(S(C)(=O)=O)cc2)n1-c1ccccc1 | – | > 345 | – | 59 | – | – | – | 0.029 | – | – | > 10 | – | –
Cc1c(CCSCCO[N+](=O)[O-])cc(-c2ccc(S(C)(=O)=O)cc2)n1-c1ccc(F)c(F)c1 | 20.7 | > 625 | 40.6 | 59 | 46.1 | 2.31 | 45.7 | 0.016 | 37.1 | 19 | > 10 | 22.5 | –
Cc1c(CC[S+]([O-])CCO[N+](=O)[O-])cc(-c2ccc(S(C)(=O)=O)cc2)n1-c1ccc(F)cc1 (centres undefined) | 18 | > 2000 | 42.3 | – | 47.2 | 2.25 | 46.1 | 0.005 | 36.3 | 21.8 | > 10 | 29.2 | half-life at 1 µM [1]: 34.7 min; half-life at 1 µM [7]: 35.1 min; microsomal CLint at 1 µM [8]: 39.9 µL/min/mg; microsomal CLint at 1 µM [10]: 40.3 µL/min/mg
Cc1c(CC[S+]([O-])CCO)cc(-c2ccc(S(C)(=O)=O)cc2)n1-c1ccccc1 (centres undefined) | – | > 31.2 | – | – | – | – | – | 0.32 | – | – | > 10 | – | –
Cc1ccc(-c2cc(C(F)(F)F)nn2-c2ccc(S(N)(=O)=O)cc2)cc1 [CELECOXIB] | – | – | – | – | – | – | – | – | – | – | – | – | Activity (Rattus norvegicus [15]): 46.7 g; Activity (Rattus norvegicus [16]): 48.5 g; Activity (Rattus norvegicus [17]): 54 g; Activity (Rattus norvegicus [18]): 1.56 mL; Activity (Rattus norvegicus [19]): 51.3 g
Cc1c(CCOCCO)cc(-c2ccc(S(C)(=O)=O)cc2)n1-c1ccc(F)c(F)c1 | – | > 23.8 | – | – | – | – | – | – | – | – | – | – | –
Cc1c(CCOCCO[N+](=O)[O-])cc(-c2ccc(S(C)(=O)=O)cc2)n1-c1ccc(F)c(F)c1 | – | > 10.9 | – | – | – | – | – | – | – | – | – | – | –
Cc1c(CCSCCO)cc(-c2ccc(S(C)(=O)=O)cc2)n1-c1ccc(F)cc1 | 21.5 | > 1250 | 41.5 | – | 48.2 | 2.22 | 48.7 | 0.008 | 38.2 | 23.1 | > 10 | 26.5 | half-life at 1 µM [1]: 36.2 min; half-life at 1 µM [7]: 19.2 min; microsomal CLint at 1 µM [8]: 39.2 µL/min/mg; microsomal CLint at 1 µM [10]: 73.2 µL/min/mg
Cc1c(CC[S+]([O-])CCO)cc(-c2ccc(S(C)(=O)=O)cc2)n1-c1ccc(F)c(F)c1 (centres undefined) | – | > 71.4 | – | – | – | – | – | 0.14 | – | – | > 10 | – | –
